The target in assay [1] is HaloTag7 (HT7) E143R E147R L271E labeled with SiR, as the C-terminal part of ChemoG5 (construct for fluorescence spectroscopy). Kind of assay: FRET or BRET; intramolecular FRET of the purified eGFP–HT7 fusion (both partners on one chain), 200 nM protein labeled with 400 nM fluorophore–CA substrate, activity buffer (50 mM HEPES, 50 mM NaCl, pH 7.3) with 0.5 mg/ml BSA, 37 °C, plate reader. On the technique in general: Bioluminescence resonance energy transfer reports proximity on the nanometre scale.

Another assay deals with T1, ChemoG1 (eGFP-HT7) (Rhodococcus sp. (in: high G+C Gram-positive bacteria), UniProt P0A3G3, L47V/S58T/D78G/Y87F/L88M/C128F/A155T/E160K/A167V/A172T/K175M/C176G/K195N/A224E/N227D/E257K/T264A/H272N/Y273L/P291S/A292T).
T1 construct: gene dhaA; eGFP fused directly to N terminus of HaloTag7; His10 removed with TEV protease; E. coli
Kind of assay: X-ray crystallography, […] Å. It counts as binding. To be noted: covalent; HaloTag labelling with chloroalkane; fluorophore at eGFP-HT7 interface.

The target of another assay is T2, ATeam 1.03 (Bacillus subtilis, UniProt P37812).
T2 construct: gene atpC; epsilon subunit between mseCFP and Venus
The experiment in a line: FRET sensor titration. It counts as binding. Particulars: read-out: C50.

T2 sequence (P37812 whole entry): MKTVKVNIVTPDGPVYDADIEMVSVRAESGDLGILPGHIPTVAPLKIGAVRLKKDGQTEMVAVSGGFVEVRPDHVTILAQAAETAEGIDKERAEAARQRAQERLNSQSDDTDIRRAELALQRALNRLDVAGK

The compound “eGFP A206K T225R, as the N-terminal part of ChemoG5 (construct for fluorescence spectroscopy) (from UniProt P42212 3-238) (domain or fragment)” returned an FRET efficiency in assay [1] of 95.8%.
In the case of `CN(C)c1ccc2c(-c3cc(C(=O)NCCOCCOCCCCCCCl)ccc3C(=O)[O-])c3ccc(=[N+](C)C)cc-3oc2c1` [TMR-CA], on ChemoG1 (eGFP-HT7), the “X-ray crystallography, 1.8 Å” value was “X-ray structure of ChemoG1 labeled with the fluorophore tetramethylrhodamine”.
As to `Nc1ncnc2c1ncn2[C@@H]1O[C@H](COP(=O)(O)OP(=O)(O)OP(=O)(O)O)[C@@H](O)[C@H]1O` [ATP], the EC50 on ATeam 1.03 was determined as 1800 µM.
